Results reported in patent publication US20230106102A1, “METHOD OF PRODUCING TRICHODESMA KHASIANUM CLARKE LEAF EXTRACTS AND APPLICATION OF THE SAME” (BAI-CHUNG-REN Foodstuff.Co.Ltd, priority 2021, published 2023).
Marks after values point to notes of the source that are not given here.

Columns and labels:
Type in all cases: in vivo
[1] = Calorie intake, alcohol intake and body weight of mice fed alcohol liquid diet; conditions: for Body weight: RA group
Description: In the design of this study, male mice of C57BL/6J strain are eight weeks old and are pre-bred for two weeks before starting the experiment to allow the animals to adapt to the environment, and observe whether the animals are abnormal daily. Raising at a relative humidity of 60%, 23±1° C., 12-hour light cycle (8:00-20:00), unlimited feed and water for rodents. The establishment and experimental grouping of liver injury and fatigue model animals. The trichodesma khasianum […] extract powders explore the effect of alcohol liquid diet on fatty liver and liver damage in mice, male mice of the C57BL/6J strain of 8 weeks old, are given special diet for experimental animals (Laboratory Rodent Diet) during the 2 week adaptation period. After one week, the body weight reached 20g, and the group is tested and started to be fed with standard alcoholic liquid model feed (Lieber-DeCarli Regular Control (DYET#710027)) or ethanol feed (Ethanol Diet (DYET#710260)), food and water are not restricted. The test is carried out for six weeks. The test substance is given a fixed daily dose by tube feeding. The dosage conversion refers to the US Food and Drug Administration announcement (US FDA, 2005), based on a 60 kg adult, the recommended daily body weight per kg 12.3 times the intake is the dose for mice. The animal experiment is divided into five groups, and each group has 8 mice, so there are […] mice, including normal group (NOR group), alcohol group (ALD group), low dose of the trichodesma khasianum […] extract powder (TL group) and high dose group of the trichodesma khasianum […] extract powder (TH group), and rosmarinic acid group (RA group). The recommended daily intake of the trichodesma khasianum […] extract powders are 2 g per day. After the animal experiment dose is converted, the one-time dose is […], and the […]-time dose is 0.82 g/kg. After fasting for 12 hours, the experimental animals are sacrificed by carbon dioxide asphyxiation, and blood and liver tissues are collected. After the blood is centrifuged, the serum is collected for biochemical analysis. The surface of the tissue is cleaned with saline solution, dried with a paper towel and weighed, then the tissue of the second largest leaf of the liver is cut and placed in a tissue embedding basin soaked in 10% formalin for paraffin embedding and sectioning so as to have tissue staining analysis. Finally, all remained livers are cleaned internally with 0.9% saline and stored in a -80° C. refrigerator for later use. The aforementioned test items of liver function in serum are aspartate aminotransferase (AST), alanine aminotransferase (ALT) and alkaline phosphatase (ALP) which are tested by using biochemical automatic analyzer (Beckman-700, Fullerton, Calif., USA). The test items of a concentration of lipid in blood are total cholesterol (TC) and triglyceride (TG) in serum, wherein a concentration of the total cholesterol is analyzed by using commercially available biochemical reagents (BXC 0261, Fortress), and a concentration of the biochemical reagents (BXC 0271, Fortress) is analyzed by triglyceride. The test items of a concentration of liver lipid are total cholesterol and triglycerides, wherein a concentration of the total cholesterol of the liver lipid is analyzed by using commercially available biochemical reagents (BXC 0261, Fortress), and a concentration of the biochemical reagents (BXC 0271, Fortress) of the liver lipid is analyzed by triglyceride. A production of lipid peroxide malondialdehyde (MDA) is determined by way of thiobarbituric acid (thiobarbituric acid) color method, wherein the more the product of lipid peroxide malondialdehyde is, the higher the absorbance value produces. Therefore, when the sample is capable of reducing the absorbance value of the system, it means that an anti-oxidant effect is formed. […]

[2] = system: mice with alcohol-induced liver injury; assay: Liver weight / body weight ratio (liver enlargement) in mice fed alcohol liquid diet; conditions: p<0.05
Description: (§1) In the design of this study, male mice of C57BL/6J strain are eight weeks old and are pre-bred for two weeks before starting the experiment to allow the animals to adapt to the environment, and observe whether the animals are abnormal daily. Raising at a relative humidity of 60%, 23±1° C., 12-hour light cycle (8:00-20:00), unlimited feed and water for rodents. The establishment and experimental grouping of liver injury and fatigue model animals. […] The test items of a concentration of lipid in blood are total cholesterol (TC) and triglyceride (TG) in serum, wherein a concentration of the total cholesterol is analyzed by using commercially available biochemical reagents (BXC 0261, Fortress), and a concentration of the biochemical reagents (BXC 0271, Fortress) is analyzed by triglyceride. The test items of a concentration of liver lipid are total cholesterol and triglycerides, wherein a concentration of the total cholesterol of the liver lipid is analyzed by using commercially available biochemical reagents (BXC 0261, Fortress), and a concentration of the biochemical reagents (BXC 0271, Fortress) of the liver lipid is analyzed by triglyceride. A production of lipid peroxide malondialdehyde (MDA) is determined by way of thiobarbituric acid (thiobarbituric acid) color method, wherein the more the product of lipid peroxide malondialdehyde is, the higher the absorbance value produces. […]

[3] = system: mice with alcohol-induced liver injury; assay: Serum liver function index (AST, ALT) by biochemical automatic analyzer; conditions: FIG. 2, extract: TL and TH group, RA group, p<0.05 vs ALD
Description: as §1

[4] = system: Mice with Alcoholic Liver Injury; assay: Serum total cholesterol and triglyceride
Description: (§2) In the design of this study, male mice of C57BL/6J strain are eight weeks old and are pre-bred for two weeks before starting the experiment to allow the animals to adapt to the environment, and observe whether the animals are abnormal daily. Raising at a relative humidity of 60%, 23±1° C., 12-hour light cycle (8:00-20:00), unlimited feed and water for rodents. The establishment and experimental grouping of liver injury and fatigue model animals. The trichodesma khasianum […] extract powders explore the effect of alcohol liquid diet on fatty liver and liver damage in mice, male mice of the C57BL/6J strain of 8 weeks old, are given special diet for experimental animals (Laboratory Rodent Diet) during the 2 week adaptation period. After one week, the body weight reached 20g, and the group is tested and started to be fed with standard alcoholic liquid model feed (Lieber-DeCarli Regular Control (DYET#710027)) or ethanol feed (Ethanol Diet (DYET#710260)), food and water are not restricted. The test is carried out for six weeks. The test substance is given a fixed daily dose by tube feeding. The dosage conversion refers to the US Food and Drug Administration announcement (US FDA, 2005), based on a 60 kg adult, the recommended daily body weight per kg 12.3 times the intake is the dose for mice. The animal experiment is divided into five groups, and each group has 8 mice, so there are […] mice, including normal group (NOR group), alcohol group (ALD group), low dose of the trichodesma khasianum […] extract powder (TL group) and high dose group of the trichodesma khasianum […] extract powder (TH group), and rosmarinic acid group (RA group). […] The test items of a concentration of lipid in blood are total cholesterol (TC) and triglyceride (TG) in serum, wherein a concentration of the total cholesterol is analyzed by using commercially available biochemical reagents (BXC 0261, Fortress), and a concentration of the biochemical reagents (BXC 0271, Fortress) is analyzed by triglyceride. The test items of a concentration of liver lipid are total cholesterol and triglycerides, wherein a concentration of the total cholesterol of the liver lipid is analyzed by using commercially available biochemical reagents (BXC 0261, Fortress), and a concentration of the biochemical reagents (BXC 0271, Fortress) of the liver lipid is analyzed by triglyceride. A production of lipid peroxide malondialdehyde (MDA) is determined by way of thiobarbituric acid (thiobarbituric acid) color method, wherein the more the product of lipid peroxide malondialdehyde is, the higher the absorbance value produces. Therefore, when the sample is capable of reducing the absorbance value of the system, it means that an anti-oxidant effect is formed. […]

[5] = system: Mice with Alcoholic Liver Injury; assay: Liver total cholesterol and triglyceride; conditions: RA group
Description: as §2

[6] = system: Mice with Alcoholic Liver Injury; assay: Liver lipid peroxidation (MDA, thiobarbituric acid color method); conditions: RA group
Description: as §1

[7] = system: mice with alcohol-induced liver injury; assay: Liver pathological section, H&E stain; conditions: FIG. 3, extract: TL and TH group, RA group
Description: as §1

[8] = RA group, alcohol liquid diet six weeks
[9] = extract high dose (TH group) or RA group
[10] = extract: TL and TH group, p<0.05

O=C(/C=C/c1ccc(O)c(O)c1)O[C@H](Cc1ccc(O)c(O)c1)C(=O)O [RA, rosmarinic acid]
body weight compared with the alcohol group ([1]; 0 to 6 weeks, alcohol feed diet, p>0.05): no significant difference
Body weight ([1]; Day 0): 22.3 ± 0.7^a g
Body weight ([1]; Day 7): 21.7 ± 0.7^a g
Body weight ([1]; Day 14): 20.6 ± 0.5^a g
Body weight ([1]; Day 21): 23.3 ± 0.8^a g
Body weight ([1]; Day 28): 22.3 ± 0.7^a g
Body weight ([1]; Day 35): 21.6 ± 0.8^a g
Body weight ([1]; Day 42): 24.6 ± 1.0^a g
ratio of liver weight/body weight compared with ALD group ([2]; FIG. 1): significantly lower
alcohol-induced liver enlargement in mice ([2]; extract: TL and TH group, RA group): significantly reduces
serum alanine transaminase (ALT/GPT) activity induced by alcohol diet [3]: significantly reduced
serum alanine transaminase (ALT/GPT) activity induced by alcohol diet ([3]; listed as rosmarinic acid): significantly reduce
Serum total cholesterol [4, 8]: 105.9 ± 9.97 ^ab mg/dL
Serum triglyceride [4, 8]: 107.7 ± 23.5 ^b mg/dL
serum total cholesterol raised by alcohol diet, compared with ALD group [4, 9]: significantly reduce
serum triglyceride raised by alcohol diet, compared with ALD group [4, 9]: significantly reduce
Liver total cholesterol ([5]; alcohol liquid diet six weeks): 6.3 ± 0.56 ^b mg/g
Liver triglyceride ([5]; alcohol liquid diet six weeks): 8.4 ± 1.68 ^bc mg/g
liver cholesterol concentration in mice [5, 10]: significantly reduce
liver triglyceride concentration in mice [5, 10]: significantly reduce
production of liver lipid peroxides induced by alcohol diet ([6]; extract: TH group, no significant difference (p>0.05)): tendency to reduce
MDA ([6]; liver, alcohol liquid diet six weeks): 5.00 ± 0.90 ^ab mM/g
liver pathological examination (H&E section) [7]: only a few fat vacuoles and macrophage infiltration around the central vein
liver pathological examination (H&E section) ([7]; listed as rosmarinic acid): improves the effects of alcoholic fatty liver and cell damage
